Measurements as given in patent US20240238318A1, “L-FUCOSE AND ANTI-ANDROGEN RECEPTOR THERAPY FOR TREATMENT OF CANCER” (H. LEE MOFFITT CANCER CENTER AND RESEARCH INSTITUTE, INC., priority 2021, published 2024).

Tested on: tumor growth and metastasis
Experiment: dietary L-fucose supplementation in mouse tumor models
Assay type: in vivo
Source text: Global fucosylation is reduced during progression in human melanomas (UEA1 fucose-binding lectin staining analysis of tumor microarray (TMA; n=˜300 patients)) via an ATF2-mediated transcriptional repression of fucokinase (FUK). However, AR transcriptionally upregulates Fucosyltransferase 4 (FUT4) expression via binding to the ARE motif in FUT4 promoter (FIG. 3). Additionally, the global tumor fucosylation is more pronounced in males relative to females (FIG. 4). […] Furthermore, the AR-FUT4 axis facilitates melanoma invasion via disrupting N-Cadherin/catenin junction complexes (FIG. 6). […] Thus, FUT4 is required for androgen-stimulated melanoma cell viability and motility (FIG. 7).

## C[C@H](O)[C@@H](O)[C@@H](O)[C@H](O)C=O [L-fucose]
  block of tumor growth and metastasis: > 50%
